Patent US6670350B1, “Method of administering dienogest in high dosages to reduce the body of the breast and pharmaceutical composition for same” (JenaPharm GmbH & Co. KG, priority 1999, dated 2003)

Legend:
body of the breast = assay: clinical study, sonographic examination of the breast; format: in vivo, patients (women)
Protocol: In a clinical study, the reduction of the body of the breast was detected sonographically in 21 patients ranging in age from 18 to 52 years. In each case, 10 mg of dienogest were administered orally as a tablet over a period of 24 weeks at intervals of 12 hours. The daily dose therefore amounted to 20 mg of dienogest. The breast was examined sonographically before the treatment as well as after 12 and 24 weeks of continuous therapy.

[1] = blood fat values on administration of high dosages of dienogest; format: in vivo

Compound: C[C@]12CCC3=C4CCC(=O)C=C4CC[C@H]3[C@@H]1CC[C@@]2(O)CC#N [dienogest, 17-hydroxy-3-oxo-19-nor-17α-pregna-4,9-diene-21-nitrile]
- body of the breast (detected sonographically) (body of the breast; 21 patients aged 18 to 52 years, 10 mg orally as tablet every 12 hours (20 mg daily) over 24 weeks, on the average, in all women): decreased significantly
- symptoms of mastopathic changes, such as duct ectasia (body of the breast; 21 patients, 10 mg orally every 12 hours (20 mg daily) over 24 weeks): receded completely
- HDL cholesterol level [1]: increased
